{"source": "ChEMBL document CHEMBL1212771", "about": "“BEL-2, an extended-spectrum beta-lactamase with increased activity toward expanded-spectrum cephalosporins in Pseudomonas aeruginosa” (Antimicrob Agents Chemother, 2010)", "key": {"Pseudomonas aeruginosa [1]": {"tested_on": "Pseudomonas aeruginosa", "assay": "Antimicrobial activity against Pseudomonas aeruginosa 51170 expressing beta-lactamase BEL-1 by solid agar dilution method", "format": "functional"}, "Escherichia coli [2]": {"tested_on": "Escherichia coli", "assay": "Antimicrobial activity against Escherichia coli TOP10 by solid agar dilution method", "format": "functional"}, "Pseudomonas aeruginosa [3]": {"tested_on": "Pseudomonas aeruginosa", "assay": "Antimicrobial activity against Pseudomonas aeruginosa 531 expressing beta-lactamase BEL-2 by solid agar dilution method", "format": "functional"}, "Escherichia coli [4]": {"tested_on": "Escherichia coli", "assay": "Antimicrobial activity against Escherichia coli TOP10 expressing recombinant beta-lactamase BEL-1 by solid agar dilution method", "format": "functional"}, "Pseudomonas aeruginosa [5]": {"tested_on": "Pseudomonas aeruginosa", "assay": "Ratio of Km for Pseudomonas aeruginosa 51170 beta-lactamase BEL-1 to Km for Pseudomonas aeruginosa 531 beta-lactamase BEL-2"}, "Escherichia coli [6]": {"tested_on": "Escherichia coli", "assay": "Antimicrobial activity against Escherichia coli TOP10 expressing recombinant beta-lactamase BEL-2 by solid agar dilution method", "format": "functional"}}}
{"smiles": "CC(C)(O/N=C(\\C(=O)N[C@@H]1C(=O)N2C(C(=O)[O-])=C(C[n+]3ccccc3)CS[C@H]12)c1csc(N)n1)C(=O)O", "note": "[CEFTAZIDIME]", "values": [{"measurement": "MIC", "setting": "Pseudomonas aeruginosa [1]", "result": 32, "unit": "µg/mL"}, {"measurement": "MIC", "setting": "Escherichia coli [2]", "result": 0.06, "unit": "µg/mL"}, {"measurement": "MIC", "setting": "Pseudomonas aeruginosa [3]", "result": 256, "unit": "µg/mL"}, {"measurement": "MIC", "setting": "Escherichia coli [4]", "result": 16, "unit": "µg/mL"}, {"measurement": "Ratio", "setting": "Pseudomonas aeruginosa [5]", "result": "< 3"}, {"measurement": "MIC", "setting": "Escherichia coli [6]", "result": 128, "unit": "µg/mL"}]}
{"smiles": "CO/N=C(\\C(=O)N[C@@H]1C(=O)N2C(C(=O)O)=C(COC(C)=O)CS[C@H]12)c1csc(N)n1", "note": "[CEFOTAXIME]", "values": [{"measurement": "MIC", "setting": "Pseudomonas aeruginosa [1]", "result": 32, "unit": "µg/mL"}, {"measurement": "MIC", "setting": "Escherichia coli [2]", "result": 0.12, "unit": "µg/mL"}, {"measurement": "MIC", "setting": "Pseudomonas aeruginosa [3]", "result": 256, "unit": "µg/mL"}, {"measurement": "MIC", "setting": "Escherichia coli [4]", "result": 4, "unit": "µg/mL"}, {"measurement": "MIC", "setting": "Escherichia coli [6]", "result": 32, "unit": "µg/mL"}]}
{"smiles": "CC1(C)S[C@@H]2[C@H](NC(=O)[C@H](N)c3ccc(O)cc3)C(=O)N2[C@H]1C(=O)O", "note": "[AMOXICILLIN]", "values": [{"measurement": "MIC", "setting": "Pseudomonas aeruginosa [1]", "result": "> 512", "unit": "µg/mL"}, {"measurement": "MIC", "setting": "Escherichia coli [2]", "result": 4, "unit": "µg/mL"}, {"measurement": "MIC", "setting": "Pseudomonas aeruginosa [3]", "result": "> 512", "unit": "µg/mL"}, {"measurement": "MIC", "setting": "Escherichia coli [4]", "result": "> 512", "unit": "µg/mL"}, {"measurement": "MIC", "setting": "Escherichia coli [6]", "result": "> 512", "unit": "µg/mL"}]}
{"smiles": "CO/N=C(\\C(=O)N[C@@H]1C(=O)N2C(C(=O)[O-])=C(C[N+]3(C)CCCC3)CS[C@H]12)c1csc(N)n1", "values": [{"measurement": "MIC", "setting": "Pseudomonas aeruginosa [1]", "result": 4, "unit": "µg/mL"}, {"measurement": "MIC", "setting": "Pseudomonas aeruginosa [3]", "result": 16, "unit": "µg/mL"}, {"measurement": "MIC", "setting": "Escherichia coli [4]", "result": 0.25, "unit": "µg/mL"}, {"measurement": "MIC", "setting": "Escherichia coli [6]", "result": 1, "unit": "µg/mL"}]}
{"smiles": "C[C@H]1[C@H](NC(=O)/C(=N\\OC(C)(C)C(=O)O)c2csc(N)n2)C(=O)N1S(=O)(=O)O", "note": "[AZTREONAM]", "values": [{"measurement": "MIC", "setting": "Pseudomonas aeruginosa [1]", "result": 16, "unit": "µg/mL"}, {"measurement": "MIC", "setting": "Pseudomonas aeruginosa [3]", "result": 64, "unit": "µg/mL"}, {"measurement": "MIC", "setting": "Escherichia coli [4]", "result": 16, "unit": "µg/mL"}, {"measurement": "MIC", "setting": "Escherichia coli [6]", "result": 16, "unit": "µg/mL"}]}
{"smiles": "CC1(C)S[C@@H]2[C@H](NC(=O)[C@H](C(=O)O)c3ccsc3)C(=O)N2[C@H]1C(=O)O", "note": "[TICARCILLIN]", "values": [{"measurement": "MIC", "setting": "Pseudomonas aeruginosa [1]", "result": "> 512", "unit": "µg/mL"}, {"measurement": "MIC", "setting": "Escherichia coli [2]", "result": 4, "unit": "µg/mL"}, {"measurement": "MIC", "setting": "Pseudomonas aeruginosa [3]", "result": "> 512", "unit": "µg/mL"}, {"measurement": "MIC", "setting": "Escherichia coli [4]", "result": "> 512", "unit": "µg/mL"}, {"measurement": "MIC", "setting": "Escherichia coli [6]", "result": "> 512", "unit": "µg/mL"}]}
{"smiles": "CO/N=C(\\C(=O)N[C@@H]1C(=O)N2C(C(=O)[O-])=C(C[n+]3cccc4c3CCC4)CS[C@H]12)c1csc(N)n1", "note": "[CEFPIROME]", "values": [{"measurement": "MIC", "setting": "Pseudomonas aeruginosa [1]", "result": 16, "unit": "µg/mL"}, {"measurement": "MIC", "setting": "Escherichia coli [2]", "result": 0.06, "unit": "µg/mL"}, {"measurement": "MIC", "setting": "Pseudomonas aeruginosa [3]", "result": 64, "unit": "µg/mL"}, {"measurement": "MIC", "setting": "Escherichia coli [4]", "result": 0.25, "unit": "µg/mL"}, {"measurement": "MIC", "setting": "Escherichia coli [6]", "result": 0.5, "unit": "µg/mL"}]}
